Patent US5126336A, “Antibiotic C-3 catechol-substituted cephalosporin compounds, compositions and method of use thereof” (Bristol-Myers Squibb Company, priority 1990, dated 1992)
Values after ≈ are worked out from the molar mass of the structure shown. Where two headings read alike, the source gives them in different places.

Legend:
Assay in all cases: MIC, agar dilution
Assay type in all cases: cell-based
[1] = system: E. faecalis A9808; details: Enterococcus faecalis, Mueller-Hinton agar pH 7.2, 32° C., 18 hr, 10^6 cells/ml
Procedure: (§1) Minimum inhibitory concentrations (MICs) of the present series of cephalosporins were determined against 32 strains of test organisms by two-fold serial agar dilution method in Mueller-Hinton agar. Geometric means of MICs were calculated against six groups of the test organisms which are classified as follows and summarized in Table 1.
(§2) Medium; MuellerHinton agar (pH = 7.2)
(§3) Incubation temperature: 32° C., 18 hr
(§4) Inoculum size; 10^6 cells/ml

[2] = system: P. aeruginosa A20599; details: Pseudomonas aeruginosa, Mueller-Hinton agar pH 7.2, 32° C., 18 hr, 10^6 cells/ml
Procedure: as §1, §2, §3, §4

[3] = system: S. aureus 209P; details: Staphylococcus aureus; S. aureus 209P; Mueller-Hinton agar pH 7.2; 32° C., 18 hr; 10^6 cells/ml; read-out: MIC
Procedure: as §1, §2, §3, §4

[4] = system: M. luteus 1001; details: Micrococcus luteus, Mueller-Hinton agar pH 7.2, 32° C., 18 hr, 10^6 cells/ml
Procedure: as §1, §2, §3, §4

[5] = system: X. maltophilia GN 12873; details: Stenotrophomonas maltophilia, GN12873, Mueller-Hinton agar pH 7.2, 32° C., 18 hr, 10^6 cells/ml
Procedure: as §1, §2, §3, §4

[6] = system: P. aeruginosa IPM-9; details: Pseudomonas aeruginosa, IPM9, Mueller-Hinton agar pH 7.2, 32° C., 18 hr, 10^6 cells/ml
Procedure: as §1, §2, §3, §4

[7] = system: P. mirabilis IFO-2849; details: Proteus mirabilis, IFO2849, Mueller-Hinton agar pH 7.2, 32° C., 18 hr, 10^6 cells/ml
Procedure: as §1, §2, §3, §4

[8] = system: S. marcescens IPM-16; details: Serratia marcescens, IPM16, Mueller-Hinton agar pH 7.2, 32° C., 18 hr, 10^6 cells/ml
Procedure: as §1, §2, §3, §4

[9] = system: E. faecium A24817; details: Enterococcus faecium, Mueller-Hinton agar pH 7.2, 32° C., 18 hr, 10^6 cells/ml
Procedure: as §1, §2, §3, §4

[10] = system: E. coli 255; details: Escherichia coli, Mueller-Hinton agar pH 7.2, 32° C., 18 hr, 10^6 cells/ml
Procedure: as §1, §2, §3, §4

[11] = system: X. maltophilia No. 661; details: Stenotrophomonas maltophilia, Mueller-Hinton agar pH 7.2, 32° C., 18 hr, 10^6 cells/ml
Procedure: as §1, §2, §3, §4

[12] = system: C. freundii GN 7391; details: Citrobacter freundii, GN7391, Mueller-Hinton agar pH 7.2, 32° C., 18 hr, 10^6 cells/ml
Procedure: as §1, §2, §3, §4

[13] = system: K. pneumoniae PCI 602; details: Klebsiella pneumoniae, PCI602, Mueller-Hinton agar pH 7.2, 32° C., 18 hr, 10^6 cells/ml
Procedure: as §1, §2, §3, §4

[14] = system: S. aureus IPM-24 (MRSA); details: Staphylococcus aureus, Mueller-Hinton agar pH 7.2, 32° C., 18 hr, 10^6 cells/ml
Procedure: as §1, §2, §3, §4

[15] = system: P. vulgaris IPM-13; details: Proteus vulgaris, IPM13, Mueller-Hinton agar pH 7.2, 32° C., 18 hr, 10^6 cells/ml
Procedure: as §1, §2, §3, §4

[16] = system: S. epidermidis 11-1230; details: Staphylococcus epidermidis, 111230, Mueller-Hinton agar pH 7.2, 32° C., 18 hr, 10^6 cells/ml
Procedure: as §1, §2, §3, §4

[17] = system: P. cepacia No. 651; details: Burkholderia cepacia, Mueller-Hinton agar pH 7.2, 32° C., 18 hr, 10^6 cells/ml
Procedure: as §1, §2, §3, §4

[18] = system: M. morgani 1510; details: Mueller-Hinton agar pH 7.2, 32° C., 18 hr, 10^6 cells/ml
Procedure: as §1, §2, §3, §4

[19] = system: S. marcescens IPM-15; details: Serratia marcescens, IPM15, Mueller-Hinton agar pH 7.2, 32° C., 18 hr, 10^6 cells/ml
Procedure: as §1, §2, §3, §4

[20] = system: B. subtilis PCI 219; details: Bacillus subtilis, PCI219, Mueller-Hinton agar pH 7.2, 32° C., 18 hr, 10^6 cells/ml
Procedure: as §1, §2, §3, §4

[21] = system: P. cepacia A21213; details: Burkholderia cepacia, Mueller-Hinton agar pH 7.2, 32° C., 18 hr, 10^6 cells/ml
Procedure: as §1, §2, §3, §4

[22] = system: P. rettgeri IPM-14; details: Providencia rettgeri, IPM14, Mueller-Hinton agar pH 7.2, 32° C., 18 hr, 10^6 cells/ml
Procedure: as §1, §2, §3, §4

[23] = system: S. aureus 4-1015 (MRSA); details: Staphylococcus aureus, Mueller-Hinton agar pH 7.2, 32° C., 18 hr, 10^6 cells/ml
Procedure: as §1, §2, §3, §4

[24] = system: M. morgani 1510/9; details: Mueller-Hinton agar pH 7.2, 32° C., 18 hr, 10^6 cells/ml
Procedure: as §1, §2, §3, §4

[25] = system: P. aeruginosa IPM-8; details: Pseudomonas aeruginosa, IPM8, Mueller-Hinton agar pH 7.2, 32° C., 18 hr, 10^6 cells/ml
Procedure: as §1, §2, §3, §4

[26] = system: C. terrigena IFO 12685; details: Mueller-Hinton agar pH 7.2, 32° C., 18 hr, 10^6 cells/ml
Procedure: as §1, §2, §3, §4

[27] = system: E. cloacae IPM-12; details: Enterobacter cloacae, IPM12, Mueller-Hinton agar pH 7.2, 32° C., 18 hr, 10^6 cells/ml
Procedure: as §1, §2, §3, §4

[28] = system: P. aeruginosa KKA 19; details: Pseudomonas aeruginosa, KKA19, Mueller-Hinton agar pH 7.2, 32° C., 18 hr, 10^6 cells/ml
Procedure: as §1, §2, §3, §4

[29] = system: S. aureus Smith; details: Staphylococcus aureus
Procedure: as §1
(§5) In vivo antibacterial activity was determined against three bacterial infections (S. aureus Smith, E. coli Juhl and P. aeruginosa A9843A) by intramuscular administration to mice just after the bacterial challenge. PD50 values are summarized in Table 3 in comparsion with the MIC values against the corresponding organisms.
as §2, §3, §4

[30] = system: E. coli Juhl A15119; details: Escherichia coli, JUHLA15119; E. coli Juhl A15119; Mueller-Hinton agar pH 7.2; 32° C., 18 hr; 10^6 cells/ml; read-out: MIC
Procedure: as §1, §5, §2, §3, §4

[31] = system: P. aeruginosa A9843A; details: Pseudomonas aeruginosa, A9843A, 18 h, pH 7.2
Procedure: as §1, §5, §2, §3, §4

Compound	MIC [1]	MIC [2]	MIC [3]	MIC [4]	MIC [5]	MIC [6]	MIC [7]	MIC [8]	MIC [9]	MIC [10]	MIC [11]	MIC [12]	MIC [13]	MIC [14]	MIC [15]	MIC [16]	MIC [17]	MIC [18]	MIC [19]	MIC [20]	further results
CO/N=C(\C(=O)NC1C(=O)N2C(C(=O)O)=C(/C=C/Cn3cnc4cc(O)c(O)cc43)CS[C@H]12)c1csc(N)n1 (some centres unmarked) [Iu, 7-[(Z)-2-(2-aminothiazol-4-yl)-2-methoxyiminoacetamido]-3-[(E)-3-(5,6-dihydroxybenzimidazol-1-yl)-1-propen-1-yl]-3-cephem-4-carboxylic acid]	100 µg/mL (≈ 175 µM)	6.3 µg/mL (≈ 11 µM)	6.3 µg/mL (≈ 11 µM)	0.8 µg/mL (≈ 1.4 µM)	> 100 µg/mL	100 µg/mL (≈ 175 µM)	0.1 µg/mL (≈ 0.175 µM)	> 100 µg/mL	> 100 µg/mL	0.8 µg/mL (≈ 1.4 µM)	> 100 µg/mL	100 µg/mL (≈ 175 µM)	0.05 µg/mL (≈ 0.0875 µM)	> 100 µg/mL	> 100 µg/mL	50 µg/mL (≈ 87.5 µM)	> 100 µg/mL	25 µg/mL (≈ 43.7 µM)	> 100 µg/mL	3.1 µg/mL (≈ 5.42 µM)	MIC [21]: > 100 µg/mL; MIC [22]: 0.8 µg/mL (≈ 1.4 µM); MIC [23]: 50 µg/mL (≈ 87.5 µM); MIC [24]: 0.4 µg/mL (≈ 0.7 µM); MIC [25]: 25 µg/mL (≈ 43.7 µM); MIC [26]: 1.6 µg/mL (≈ 2.8 µM); MIC [27]: > 100 µg/mL; MIC [28]: 100 µg/mL (≈ 175 µM); MIC ([29]; S. aureus Smith, Mueller-Hinton agar pH 7.2, 32° C., 18 hr, 10^6 cells/ml, read-out: MIC): 6.3 µg/mL (≈ 11 µM); MIC [30]: 0.2 µg/mL (≈ 0.35 µM); MIC [31]: 6.3 µg/mL (≈ 11 µM)
C[n+]1cn(C/C=C/C2=C(C(=O)[O-])N3C(=O)C(NC(=O)/C(=N\OC(C)(C)C(=O)O)c4csc(N)n4)C3SC2)c2cc(O)c(O)cc21 (centres unmarked) [Ip, 7-[(Z)-2-(2-Aminothiazol-4-yl)-2-(1-methyl-1-carboxyethoxy-imino)acetamido]-3-[(E)-3-(5,6-dihydroxy-3-methylbenzimi-dazol-3-io-1-yl)-1-propen-1-yl]-3-cephem-4-carboxylate]	> 100 µg/mL	0.2 µg/mL (≈ 0.304 µM)	25 µg/mL (≈ 38 µM)	3.1 µg/mL (≈ 4.71 µM)	1.6 µg/mL (≈ 2.43 µM)	12.5 µg/mL (≈ 19 µM)	0.05 µg/mL (≈ 0.076 µM)	3.1 µg/mL (≈ 4.71 µM)	> 100 µg/mL	0.05 µg/mL (≈ 0.076 µM)	0.8 µg/mL (≈ 1.22 µM)	12.5 µg/mL (≈ 19 µM)	0.013 µg/mL (≈ 0.0198 µM)	> 100 µg/mL	12.5 µg/mL (≈ 19 µM)	25 µg/mL (≈ 38 µM)	3.1 µg/mL (≈ 4.71 µM)	1.6 µg/mL (≈ 2.43 µM)	> 100 µg/mL	12.5 µg/mL (≈ 19 µM)	MIC [21]: 1.6 µg/mL (≈ 2.43 µM); MIC [22]: 0.2 µg/mL (≈ 0.304 µM); MIC [23]: > 100 µg/mL; MIC [24]: 0.1 µg/mL (≈ 0.152 µM); MIC [25]: 0.1 µg/mL (≈ 0.152 µM); MIC [26]: 1.6 µg/mL (≈ 2.43 µM); MIC [27]: 3.1 µg/mL (≈ 4.71 µM); MIC [28]: 0.2 µg/mL (≈ 0.304 µM); MIC ([29]; 18 h, pH 7.2): 100 µg/mL (≈ 152 µM); MIC [30]: 0.2 µg/mL (≈ 0.304 µM); MIC [31]: 0.1 µg/mL (≈ 0.152 µM)
